This note sets out measurements from patent US20120328569A1, “INHIBITORS OF HEPATITIS C VIRUS NS5B POLYMERASE” (priority 2010, published 2012).

The assay relates to HCV genotype 1b replicon. In words: HCV replicon assay, cell ELISA with antibody to replicon-encoded NS3/4A (genotype 1b replicon). The following applies: Hepatitis C virus, 96 h, read-out: Replicon 1b IC50 (nM), HCV genotype 1b replicon cells, 96 hours incubation, NS3/4A ELISA readout. It is filed as cell-based, hepatitis C virus. As for the experimental part:
The HCV NS5B inhibitory activity of the present compounds may be tested using assays known in the art. The HCV NS5B polymerase inhibitors described herein have activities in a genotype 1b replicon assay as described in the Examples. The assay is performed by incubating a replicon harboring cell-line in the presence of inhibitor for a set period of time and measuring the effect of the inhibitor on HCV replicon replication either directly by quantifying replicon RNA level, or indirectly by measuring enzymatic activity of a co-encoded reporter enzyme such as luciferase or β-lactamase. By performing a series of such measurements at different inhibitor concentrations, the effective inhibitory concentration of the inhibitor (EC50 or EC90) is determined. See Jan M. Vrolijk et al., A replicons-based bioassay for the measurement of interferons in patients with chronic hepatitis C, 110 J. VIROLOGICAL METHODS 201 (2003). Such assays may also be run in an automated format for high through-put screening. See Paul Zuck et al., A cell-based β-lactamase reporter gene assay for the identification of inhibitors of hepatitis C virus replication, 334 ANALYTICAL BIOCHEMISTRY 344 (2004).
Measurement of inhibition by compounds was performed using the HCV replicon system. Several different replicons encoding different HCV genotypes or mutations were used. In addition, potency measurements were made using different formats of the replicon assay, including different ways of measurements and different plating formats. See Jan M. Vrolijk et al., A replicons-based bioassay for the measurement of interferons in patients with chronic hepatitis C, 110 J. VIROLOGICAL METHODS 201 (2003); Steven S. Carroll et al., Inhibition of Hepatitis C Virus RNA Replication by 2′-Modified Nucleoside Analogs, 278(14) J. BIOLOGICAL CHEMISTRY 11979 (2003). However, the underlying principles are common to all of these determinations, and are outlined below.
Stable neomycin phosphotransferase encoding replicons-harboring cell lines were used, so all cell lines were maintained under G418 selection prior to the assay. Potency was determined using a cell ELISA assay with an antibody to the replicons encoded NS3/4a protease. See Caterina Trozzi et al., In Vitro Selection and Characterization of Hepatitis C Virus Serine Protease Variants Resistant to an Active-Site Peptide Inhibitor, 77(6) J. Virol. 3669 (2003). To initiate an assay, replicon cells were plated in the presence of a dilution series of test compound in the absence of G418. Typically, the assays were performed in a 96-well plate formate for manual operation, or a 384-well plate format for automated assay. Replicon cells and compound were incubated for 96 hours. At the end of the assay, cells were washed free of media and compound, and the cells were then lysed. RNA was quantified indirectly through detection of replicon-encoded NS3/4A protein levels, through an ELISA-based assay with an antibody specific for NS3/4A. IC50 determinations were calculated as a percentage of a DMSO control by fitting the data to a four-parameter fit function and the data obtained is provided in the table below.

The structures appear in SMILES notation.

Turning to `CNC(=O)c1c(-c2ccc(F)cc2)oc2cc(N(C)S(C)(=O)=O)c(-c3cccc(-c4cc5cc(F)ccc5[nH]4)c3)cc12` [Compound 367], the IC50 turned out to be 3.9 nM. In the case of `CNC(=O)c1c(-c2ccc(F)cc2)oc2cc(N(C)S(C)(=O)=O)c(-c3cccc(-c4cc5ncccc5[nH]4)c3)cc12` [Compound 368], the IC50 came out at 1.6 nM. Turning to `CNC(=O)c1c(-c2ccc(F)cc2)oc2cc(N(C)S(C)(=O)=O)c(-c3cccc(-c4cc5cccnc5[nH]4)c3)cc12` [Compound 369], the IC50 came to 2.7 nM.

Take `CNC(=O)c1c(-c2ccc(F)cc2)oc2cc(N(C)S(C)(=O)=O)c(-c3cccc(-c4[nH]c5ccccc5c4C)c3)cc12` [Compound 370]: the IC50 came to 8.8 nM.

For `CNC(=O)c1c(-c2ccc(F)cc2)oc2cc(N(C)S(C)(=O)=O)c(-c3cccc(-c4cc5cccc(Cl)c5[nH]4)c3)cc12` [Compound 371], the IC50 was 5.8 nM. For the compound `CNC(=O)c1c(-c2ccc(F)cc2)oc2cc(N(C)S(C)(=O)=O)c(-c3cc(F)cc(-c4cc5ccccc5[nH]4)c3)cc12` [Compound 372], the IC50 is 13 nM.

With `CNC(=O)c1c(-c2ccc(F)cc2)oc2cc(N(C)S(C)(=O)=O)c(-c3ccc(OC)c(-c4cc5ccccc5[nH]4)c3)cc12` [Compound 373], the IC50 was 3.9 nM. With `CNC(=O)c1c(-c2ccc(F)cc2)oc2cc(N(C)S(C)(=O)=O)c(-c3ccc(OC)c(-c4cc5cccc(F)c5[nH]4)c3)cc12` [Compound 374] the figure was 52.4 nM; with `CNC(=O)c1c(-c2ccc(F)cc2)oc2cc(N(C)S(C)(=O)=O)c(-c3cc(OC)cc(-c4cc5ccccc5[nH]4)c3)cc12` [Compound 375], 2.7 nM; with `CNC(=O)c1c(-c2cccc(-c3cc4c(C(=O)NC)c(-c5ccc(F)cc5)oc4cc3N(C)S(C)(=O)=O)c2)[nH]c2ccccc12` [Compound 377], 1.2 nM.

Turning to `CNC(=O)c1c(-c2ccc(F)cc2)oc2cc(N(C)S(C)(=O)=O)c(-c3cc(OC)cc(-c4cc5cccnc5[nH]4)c3)cc12` [Compound 378], the IC50 is 1.8 nM. As for `CNC(=O)c1c(-c2ccc(F)cc2)oc2cc(N(C)S(C)(=O)=O)c(-c3ccc(F)c(-c4cc5cccnc5[nH]4)c3)cc12` [Compound 380], the IC50 amounted to 1.2 nM. Consider `CNC(=O)c1c(-c2ccc(F)cc2)oc2cc(N(CCO)S(C)(=O)=O)c(-c3cc(F)cc(-c4nc5ncccc5o4)c3)cc12` [Compound 386], for which the IC50 amounted to 1.3 nM. `CNC(=O)c1c(-c2ccc(F)cc2)oc2cc(N(CCO)S(C)(=O)=O)c(-c3ccc(OC)c(-c4nc5ncccc5o4)c3)cc12` [Compound 387]: the IC50 worked out at 2.3 nM. On to `CNC(=O)c1c(-c2ccc(F)cc2)oc2cc(N(CCCCO)S(C)(=O)=O)c(-c3cccc(-c4nc5ncccc5o4)c3)cc12` [Compound 391], for which the IC50 was found to be 2.4 nM. Consider `CNC(=O)c1c(-c2ccc(F)cc2)oc2cc(N(CCCC#N)S(C)(=O)=O)c(-c3cccc(-c4nc5ncccc5o4)c3)cc12` [Compound 393], for which the IC50 worked out at 1.2 nM.

As to `CNC(=O)c1c(-c2ccc(F)cc2)oc2cc(N(CCCCC#N)S(C)(=O)=O)c(-c3cccc(-c4nc5ncccc5o4)c3)cc12` [Compound 394], the IC50 stood at 1.4 nM. With `CNC(=O)c1c(-c2ccc(F)cc2)oc2cc(N(CCCNC(=O)OC(C)(C)C)S(C)(=O)=O)c(-c3cccc(-c4nc5ncccc5o4)c3)cc12` [Compound 395] the figure was 8.2 nM; with `CNC(=O)c1c(-c2ccc(F)cc2)oc2cc(N(CCCN)S(C)(=O)=O)c(-c3cccc(-c4nc5ncccc5o4)c3)cc12` [Compound 396], 18.2 nM.

Take `CNC(=O)c1c(-c2ccc(F)cc2)oc2cc(N(CCN(C)C)S(C)(=O)=O)c(-c3cccc(-c4nc5ncccc5o4)c3)cc12` [Compound 398]: the IC50 was 2.4 nM.

Take `CNC(=O)c1c(-c2ccc(F)cc2)oc2cc(N(CCCN(C)C)S(C)(=O)=O)c(-c3cccc(-c4nc5ncccc5o4)c3)cc12` [Compound 399]: the IC50 is 2.8 nM. As for `CCS(=O)(=O)N(C)c1cc2oc(-c3ccc(F)cc3)c(C(=O)NC)c2cc1-c1cccc(-c2nc3ncccc3o2)c1` [Compound 401], the IC50 is 1.8 nM. `CNC(=O)c1c(-c2ccc(F)cc2)oc2cc(N(C)S(C)(=O)=O)c(-c3ccccc3)cc12` [Example 1, 2-(4-fluorophenyl)-N-methyl-6-[methyl(methylsulfonyl)amino]-5-phenyl-1-benzofuran-3-carboxamide]: the IC50 was 120 nM. Consider `CNC(=O)c1c(-c2ccc(F)cc2)oc2cc(N(CCO)S(C)(=O)=O)c(-c3ccccc3)cc12` [Example 2, 2-(4-fluorophenyl)-6-[(2-hydroxyethyl) (methylsulfonyl)amino]-N-methyl-5-phenyl-1-benzofuran-3-carboxamide], for which the IC50 stood at 114 nM. Consider `CNC(=O)c1c(-c2ccc(F)cc2)oc2cc(N(CCN(C)c3ccccc3)S(C)(=O)=O)c(-c3ccccc3)cc12` [Example 3, 2-(4-fluorophenyl)-N-methyl-6-[{2-[methyl(phenyl)amino]ethyl} (methylsulfonyl)amino]-5-phenyl-1-benzofuran-3-carboxamide], for which the IC50 amounted to 80 nM.

As to `CNC(=O)c1c(-c2ccc(F)cc2)oc2cc(N(C(C)c3ccccc3)S(C)(=O)=O)c(-c3ccccc3)cc12` (centres unmarked) [Example 4, 2-(4-fluorophenyl)-N-methyl-6-[(methylsulfonyl) (1-phenylethyl)amino]-5-phenyl-1-benzofuran-3-carboxamide], the IC50 worked out at 703 nM. As for `CCN(c1cc2oc(-c3ccc(F)cc3)c(C(=O)NC)c2cc1-c1ccccc1)S(C)(=O)=O` [Example 5, 6-[ethyl (methylsulfonyl)amino]-2-(4-fluorophenyl)-N-methyl-5-phenyl-1-benzofuran-3-carboxamide], the figure is 47 nM. Consider `CNC(=O)c1c(-c2ccc(F)cc2)oc2cc(N(CCCc3ccccc3)S(C)(=O)=O)c(-c3ccccc3)cc12` [Example 6, 2-(4-fluorophenyl)-N-methyl-6-[(methylsulfonyl) (3-phenylpropyl)amino]-5-phenyl-1-benzofuran-3-carboxamide], for which the IC50 stood at 118 nM.

As for `CONC(=O)c1c(-c2ccc(F)cc2)oc2cc(N(CCN(C)c3ccccc3)S(C)(=O)=O)c(-c3ccccc3)cc12` [Example 8, 2-(4-fluorophenyl)-N-methoxy-6-[{2-[methyl(phenyl)amino]ethyl} (methylsulfonyl)amino]-5-phenyl-1-benzofuran-3-carboxamide], the IC50 was determined as 276 nM. On to `CCN(c1cc2oc(-c3ccc(F)cc3)c(C(=O)NOC)c2cc1-c1ccccc1)S(C)(=O)=O` [Example 9, 6-[ethyl (methylsulfonyl)amino]-2-(4-fluorophenyl)-N-methoxy-5-phenyl-1-benzofuran-3-carboxamide], for which the IC50 is 99 nM. As for `CONC(=O)c1c(-c2ccc(F)cc2)oc2cc(N(CCCc3ccccc3)S(C)(=O)=O)c(-c3ccccc3)cc12` [Example 10, 2-(4-fluorophenyl)-N-methoxy-6-[(methylsulfonyl) (3-phenylpropyl)amino]-5-phenyl-1-benzofuran-3-carboxamide], the figure is 221 nM.

In the case of `CNC(=O)c1c(-c2ccc(F)cc2)oc2cc(N(CC3CCCCC3)S(C)(=O)=O)c(-c3ccccc3)cc12` [Example 13, 6-[(cyclohexylmethyl)(methylsulfonyl)amino]-2-(4-fluorophenyl)-N-methyl-5-phenyl-1-benzofuran-3-carboxamide], the IC50 is 84 nM.
